“Also recorded” adds a separate entry of the source. Like-named read-outs stand apart in the source and are kept apart here.
Tests used:
[1] = Single-dose pharmacokinetic study, oral and intravenous, in SD rats; format: in vivo, SD rat; settings: for Exposure and bioavailability (words, comparison): oral administration 10 mg/kg; for F: calculated by intravenous administration of 1 mg/kg; for Cmax / MRT last / Tmax / AUC(0-inf) / half-life / Vd/F / AUC(0-t) / clearance / Vd: male, SD, rat, plasma; for AUC(0-inf): read-out: AUCINF—pred; for half-life: read-out: HL_Lambda_z (T1/2) (converted); for Vd/F: read-out: Vz—F—pred; for clearance: read-out: Cl—pred (converted); for Vd: read-out: Vz—pred;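 as to AUClast: AUClast in h·ng/mL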
Experimental: Form 1, Form 2, and Form 5D were each evaluated via a single-dose pharmacokinetic study following oral and intravenous administration in SD rats. […] Form 1, Form 2, and Form 5Dwere evaluated by rat pharmacokinetics study.
Male SD rat was purchased from Shanghai Sippr B&K Laboratory Animals Co., Ltd. The weight was 180 g˜200 g.
20% HP-β-CD was prepared from dissolving20 g of HP-β-CD (from Sigma) in 100 mL purified water. 0.5% CMC-Na was prepared from dissolving 1 g of CMC-Na (from Aladdin) in 200 mL purified water. The solutions were stored at 2-8 degree.
(§1) Group 1:4.95 mg (equivalent to 4.50 mg of anhydrous free base) of Form 1 was weighed out into a 20 ml bottle, and totally dissolved by 0.225 mL DMSO by sonication. After that, 4.275 mL of 20% HP-β-CD was added, mixed well by sonication. Finally, the pH value was adjusted to 7.0 by sodium hydroxide solution. The clear solution was obtained, and the concentration was 1 mg/mL.
Group 2:10.08 mg (equivalent to 9.164 mg of anhydrous free base) of Form 1 was weighed out into a 20 ml bottle, and then 9.164 mL of 0.5% CMC-Na was added. A white suspension was formed after sonicated by ultrasonic cell disruptor, and the concentration was 1 mg/mL.
Group 3:9.47 mg of Form 2 was weighed out into a 20 ml bottle, and then 9.470 mL of 0.5% CMC-Na was added. After sonicated, it was mixed well by homogenizer for 2 minutes. Finally, a white suspension was formed, and the concentration was 1 mg/mL.
Group 4:9.80 mg (equivalent to 8.909 mg of free base) of Form 5Dwas weighed out into a 20 mL bottle, and then 8.909 mL of 0.5% CMC-Na was added. After sonicated, it was mixed well by homogenizer for 2 minutes. Finally, a white suspension was formed, and the concentration was 1 mg/mL.
as §1, with “Group 5:1.94” for “Group 1:4.95”, “to 1.763” for “to 4.50”, “by 0.088” for “by 0.225”, “that, 1.675” for “that, 4.275”, “was 0.2” for “was 1”
The dose of intravenous administration was 1 mg/kg and 5 mg/kg, respectively. The oral dose was 10 mg/kg. Animals were fasted overnight before drug administration. After the drug administration, the rats were fed at the 4 hours.
About 150˜200 μL of blood was collected at the initial time (only intravenous), and at 0.25, 0.5, 1, 2, 4, 6, 8 and 24 h by jugular venipuncture blooding method. EDTA-K2 was selected as anticoagulant. Blood samples were centrifuged within one hour at 6000 rpm for 8 minutes (placed on wet ice before centrifugation). The supernatant was stored at −20° C. for LC-MS/MS analysis.
The computer program Microsoft Office Excel 2007 (Microsoft, USA) was used to process data and graphics. The pharmacokinetic parameters were calculated by WinNolin 6.4 software.

[2] = Solid state stability under stress conditions (XRPD, HPLC); format: physicochemical; settings: for XRPD pattern after stress storage: closed vial about 60° C., closed vial about 40° C./75% RH, 1 week and 2 weeks
Experimental: Form 1. Form 2, Form 6, Form 8, and Form 11 were each placed under following stress conditions: (1) in a closed vial at a temperature of about 60° C., and (2) in a closed vial at a temperature of about 40′° C. and a humidity of about 75% RH. The solids were analyzed with XRPD at 1 week and 2 weeks intervals.
Additionally, all forms were analyzed with HPLC for impurity at the 1 week and 2 weeks intervals. In a typical analysis, about 5 mg of forms were each dissolved in 10 ml of diluents with the aid of sonication for 2 minutes. THF was used as the diluent for Form 1, and methanol was used as the diluent for Form 6, Form 8, and Form 11. The HPLC analysis utilized Agilent Eclipse XDB-C18 4.6*150 mm. 3.5 μm at 30° C., a mobile phase of a gradient between 0.1% H3PO4 and acetonitrile (9:1 to 2:8 to 9:1), an injection volume of 10 μl, a flow rate of 1.0 ml/min, and a detection wavelength of 214 nm.
Form 2 was further subject to the stability test in an open vial at 40° C. and a relative humidity of 75% RH.

[3] = male SD rats, oral 10 mg/kg, Average (Table 10)
[4] = po, 10 mg/kg, male SD rats, oral 10 mg/kg, Average (Table 10)
[5] = po, 10 mg/kg, male SD rats, oral 10 mg/kg, individual rats 301/302/303 (c1/c2/c3)
[6] = male SD rats, oral 10 mg/kg, Average (Table 9)
[7] = iv, 1 mg/kg, male SD rats, intravenous 1 mg/kg, Average
[8] = iv, 1 mg/kg, male SD rats, intravenous 1 mg/kg, individual rats 501/502/503 (c1/c2/c3)
[9] = iv, 5 mg/kg, male SD rats, 5 mg/kg (intravenous), Average
[10] = iv, 5 mg/kg, male SD rats, 5 mg/kg (intravenous), individual rats 101/102/103 (c1/c2/c3)
[11] = po, 10 mg/kg, male SD rats, oral 10 mg/kg, Average (Table 9)
[12] = po, 10 mg/kg, male SD rats, oral 10 mg/kg, individual rats 201/202/203 (c1/c2/c3)

SMILES: CCc1nc2ccccn2c1C(=O)c1cc(Br)c(O)c(C#N)c1 [Form 2, 3-bromo-5-[(2-ethylimidazo[1,2-a]pyridin-3-yl)carbonyl]-2-hydroxybenzonitrile]
- Exposure and bioavailability (words, comparison) ([1]; SD rats, 10 mg/kg): higher dose exposure and bio-availability than Form 1; also recorded: higher exposure (AUC0-1) and better bioavailability than Form 1; also recorded: approximately the same as Form 5D; also recorded: sufficiently high bioavailability
- AUClast [1, 3]: 88482.4 ng·h/mL
- Cl—F—pred [1, 3]: 2 mL/min/kg
- F [1, 3]: 50.98%
- Cmax [1, 4]: 7950 ng/mL
- MRT last [1, 4]: 6.12 h
- Tmax [1, 4]: 4 h
- AUC(0-inf) [1, 4]: 89100 ng·h/mL
- half-life [1, 4]: 3.08 h
- Vd/F [1, 4]: 0.52 L/kg
- AUC(0-t) [1, 5]: 108000 ng·h/mL
- Cmax [1, 5]: 8490 ng/mL
- MRT last [1, 5]: 6.15 h
- Tmax [1, 5]: 4 h
- AUC(0-inf) [1, 5]: 92400 ng·h/mL
- half-life [1, 5]: 3.32 h
- Vd/F [1, 5]: 0.45 L/kg
- XRPD pattern after stress storage [2]: substantially similar to those received at the initial time
- XRPD after storage in an open vial ([2]; open vial, 40° C., 75% RH): significant changes at the end of ninth day

SMILES: CCc1nc2ccccn2c1C(=O)c1cc(Br)c(O)c(C#N)c1 [Form 1, 3-bromo-5-[(2-ethylimidazo[1,2-a]pyridin-3-yl)carbonyl]-2-hydroxybenzonitrile]
- Exposure at 5 mg/kg relative to 1 mg/kg ([1]; SD rats, intravenous administration, 5 mg/kg versus 1 mg/kg): about 5 times
- Exposure and bioavailability (words, comparison) ([1]; SD rats, 10 mg/kg): sufficiently high bioavailability
- Cl—F—pred [1, 6]: 2.17 mL/min/kg
- F [1, 6]: 43.54%
- AUC(0-t) [1, 7]: 17400 ng·h/mL
- Cmax [1, 7]: 9580 ng/mL
- MRT last [1, 7]: 3.65 h
- AUC(0-inf) [1, 7]: 17400 ng·h/mL
- clearance [1, 7]: 1 mL/min/kg
- half-life [1, 7]: 2.9 h
- Vd [1, 7]: 0.24 L/kg
- AUC(0-t) [1, 8]: 18500 ng·h/mL
- Cmax [1, 8]: 7120 ng/mL
- MRT last [1, 8]: 3.99 h
- AUC(0-inf) [1, 8]: 18500 ng·h/mL
- clearance [1, 8]: 0.833 mL/min/kg
- half-life [1, 8]: 3.2 h
- Vd [1, 8]: 0.25 L/kg
- AUC(0-t) [1, 9]: 80200 ng·h/mL
- Cmax [1, 9]: 51400 ng/mL
- MRT last [1, 9]: 3.44 h
- AUC(0-inf) [1, 9]: 80500 ng·h/mL
- clearance [1, 9]: 1 mL/min/kg
- half-life [1, 9]: 3.08 h
- Vd [1, 9]: 0.28 L/kg
- AUC(0-t) [1, 10]: 90800 ng·h/mL
- Cmax [1, 10]: 55700 ng/mL
- MRT last [1, 10]: 3.65 h
- AUC(0-inf) [1, 10]: 91100 ng·h/mL
- clearance [1, 10]: 0.833 mL/min/kg
- half-life [1, 10]: 3.12 h
- Vd [1, 10]: 0.25 L/kg
- AUC(0-t) [1, 11]: 75600 ng·h/mL
- Cmax [1, 11]: 6480 ng/mL
- MRT last [1, 11]: 6.51 h
- AUC(0-inf) [1, 11]: 76200 ng·h/mL
- half-life [1, 11]: 3.16 h
- Vd/F [1, 11]: 0.61 L/kg
- AUC(0-t) [1, 12]: 71500 ng·h/mL
- Cmax [1, 12]: 6030 ng/mL
- MRT last [1, 12]: 6.64 h
- AUC(0-inf) [1, 12]: 72100 ng·h/mL
- half-life [1, 12]: 3.15 h
- Vd/F [1, 12]: 0.63 L/kg
- XRPD pattern after stress storage [2]: substantially similar to those received at the initial time
